Where “and” joins values, the source holds several entries; their conditions need not be identical. Equal values may be shown once. Read-outs that look alike come from different tables or passages of the source.
Assays:
[1] = Pharmacokinetic study in cannulated male Sprague-Dawley rats (serum and urine, HPLC); format: in vivo, rat; conditions: for CL renal: serum and urine; for AUC: n = 4 (abstract); for bioavailability: read-out: Bioavailability (F%); for AUC(0-inf): n = 4; for Cumulative amount excreted in urine: over 72 h; for CLhepatic: CLtotal − CLrenal
Source text: The HPLC system used was a Shimadzu HPLC (Kyoto, Japan), consisting of two LC-10A pumps, a SIL-10AF autoinjector, a SPD-M10A photodiode array detector, and a SCL-10A system controller. Data collection and integration were achieved using Shimadzu EZ Start Class VP (version 7.4) software. A Phenomenex Luna C18(2) (5 μm, 250 × 4.60 mm) column was used. The mobile phase consisted of acetonitrile and water (62 : 38 v/v) that were filtered and degassed under reduced pressure prior to use. Pinosylvin was used as the internal standard. […] Ultraviolet detection was carried out at 327 nm. […] The bias of the assay was <15% and was within 13% at the LOQ [9].
Male Sprague-Dawley rats (≈200 g) were obtained from Simonsen Laboratories (Gilroy, CA, USA) and allowed food (Purina Rat Chow 5001) and water ad libitum upon arrival to the vivarium. Rats were housed in a temperature- and humidity-controlled facility with a 12 h light/dark cycle. Prior to the first day of the pharmacokinetic experiment, the rats were anesthetized using isoflurane (IsoFlo, Abbott Laboratories, Abbot Park, IL, USA) coupled with an oxygen regulator, and monitored by pedal reflex and respiration rate to maintain a surgical plane of anesthesia. The right jugular veins of the rats were cannulated with sterile silastic cannulas (Dow Corning, Midland, MI, USA). After cannulation, Intramedic PE-50 polyethylene tubing (Becton, Dickinson and Company, Franklin Lakes, NJ, USA) was exposed through the dorsal skin. The cannulas were flushed with nonheparinized 0.9% sterile saline solution. The animals were placed in metabolic cages to recover and fasted overnight.
No pharmacokinetics studies are reported in the literature for 3-methoxypterostilbene. Despite the paucity of 3-methoxypterostilbene pharmacokinetic studies in the literature, studies on other stilbenes have reported intravenous (IV) dosage ranges from 10 to 20 mg/kg and from 50 to 300 mg//kg for oral (PO) dosage. In keeping with the literature, doses of 10 mg/kg IV and 100 mg/kg PO were chosen.
Male Sprague-Dawley rats (n = 8, average weight 200 g) were cannulated as described in the Animals and Surgical Procedures section. The animals were placed in metabolic cages following surgery where they were recovered overnight and fasted for 12 h prior to dosing. On the day of the experiment, the animals were dosed with 3-methoxypterostilbene in PEG 400 either IV (10 mg/kg, n = 4) or PO (100 mg/kg, n = 4). After dosing, a series of whole blood samples (0.5 mL) were collected at 0, 1, and 15 min, and 0.5, 1, 2, 4, 6, 12, 24, 48, and 72 h and 0, 0.25, 0.5, 1, 2, 4, 6, 12, 24, 48, and 72 h for IV and PO dosed rats, respectively. The cannulas were flushed with 0.5 mL 0.9% nonheparinized saline solution after each sample collection. The samples were collected into regular 2.0 mL Eppendorf tubes, centrifuged at 10,000 rpm for 5 min (Beckman Microfuge centrifuge, Beckman Coulter Inc., Fullerton, CA, USA), and the serum was collected. The serum was divided into two 0.1 mL fractions and placed into regular 2.0 mL Eppendorf tubes labeled as free and total serum samples. Samples were stored at −20°C until analyzed. Urine samples were also collected at 0, 2, 6, 12, 24, 48, and 72 h following 3-methoxypterostilbene administration. The volumes of urine produced by the rats were recorded, and two 0.1 mL aliquots were collected into separate prelabeled regular polypropylene microcentrifuge tubes and labeled as free and total urine samples and stored at −20°C until analyzed. At 72 h after dose, the animals were euthanized exsanguinated, and serum was collected.
Serum and urine samples (0.1 mL) were run in duplicate with or without the addition of 20 μL of 500 U/mL β-glucuronidase and incubated in a shaking water bath at 37°C for 2 h to liberate any glucuronide conjugates. The proteins present in the serum samples were precipitated using 1 mL of −20°C acetonitrile. […]

[2] = test system: α-glucosidase from Saccharomyces cerevisiae; assay: α-Glucosidase inhibition colorimetric assay (PNPG); format: biochemical; conditions: 0 to 200 μg/mL, n = 6
[3] = Antioxidant capacity (inhibition of oxidation of ABTS to ABTS radical cation by metmyoglobin, Cayman kit); format: biochemical; conditions: for Antioxidant capacity (Trolox equivalents): n = 4, mean ± SEM
Experimental: The amount of ABTS^∙+ can be monitored spectrophotometrically. The degree of suppression of absorbance caused by the compound of interest is proportional to the concentration of […], which is expressed as Trolox equivalents (μg/mL). […] No additional dilution was employed. To run the assay, 10 μL of sample was combined with 10 μL metmyoglobin and 150 μL chromogen. Then, 40 μL of hydrogen peroxide working solution was added within 1 min to all the samples. The plate was covered and incubated on a shaker for 5 min at room temperature […]), and the absorbance was measured at 750 nm using the Synergy HT multiwell plate reader and Gen5 data analysis software (Biotek Instruments Inc., Winooski, VT, USA). The assay was performed in quadruplet. For more information regarding the assay protocol, please refer to the instructions for the kit (Antioxidant Assay Kit from Cayman Chemical—Cat. no. 709091).

[4] = test system: human leukemia-derived HL60 cells; conditions: cited from earlier work
[5] = computer model; cited from earlier work
crown-gall = test system: crown-gall; design: method as in PMID 3598597; conditions: cited from earlier work
[6] = rat, intravenous 10 mg/kg, mean ± SEM
[7] = rat, oral 100 mg/kg, mean ± SEM
[8] = rat, oral 100 mg/kg, mean ± SEM, 100 mg/kg

Question: With COc1cc(/C=C/c2ccc(O)c(OC)c2)cc(OC)c1 [3-methoxypterostilbene, trans-3,3′-5-trimethoxy-4′-hydro-xystilbene] as the molecule, how does the CL renal ([1]; male, Sprague-Dawley, rat, intravenous 10 mg/kg, mean ± SEM) read?
Answer: 12.7 mL/min/kg

Question: And the CL renal ([1]; male, Sprague-Dawley, rat, oral 100 mg/kg, mean ± SEM)?
Answer: 0.167 mL/min/kg

Question: What about the AUC ([1]; male, Sprague-Dawley, serum, rat, IV 10 mg/kg, mean ± SEM) of the same molecule?
Answer: 48.1 ± 23.8 µg·h/mL

Question: And the concentration at 24 h ([1]; male, Sprague-Dawley, serum, rat, IV 10 mg/kg, below detectable concentrations, read-out: Serum concentration after 24 hours)?
Answer: < 50 ng/mL

Question: And the AUC ([1]; male, Sprague-Dawley, serum, rat, PO 100 mg/kg, mean ± SEM)?
Answer: 229 ± 44.6 µg·h/mL

Question: What about the MRT ([1]; male, Sprague-Dawley, serum, rat, intravenous 10 mg/kg, mean ± SEM) of the same molecule?
Answer: 26 ± 15 h

Question: What about the clearance ([1]; male, Sprague-Dawley, serum, rat, intravenous 10 mg/kg, mean ± SEM, read-out: CLtotal (converted)) of the same molecule?
Answer: 797 mL/min/kg

Question: And the half-life ([1]; male, Sprague-Dawley, serum, rat, intravenous 10 mg/kg, mean ± SEM, read-out: t 1/2 serum (converted))?
Answer: 18.9 ± 10.9 h

Question: And the bioavailability ([1]; male, Sprague-Dawley, serum, rat, intravenous 10 mg/kg)?
Answer: 100%

Question: What about the bioavailability ([1]; male, Sprague-Dawley, serum, rat, oral 100 mg/kg vs 10 mg/kg IV, mean ± SEM) of the same molecule?
Answer: 50.6 ± 10%

Question: What about the MRT ([1]; male, Sprague-Dawley, serum, rat, oral 100 mg/kg, mean ± SEM) of the same molecule?
Answer: 105 ± 13.1 h

Question: What about the half-life ([1]; male, Sprague-Dawley, serum, rat, oral 100 mg/kg, mean ± SEM, read-out: t 1/2 serum (converted)) of the same molecule?
Answer: 73.3 ± 8.91 h

Question: What about the half-life ([1]; male, Sprague-Dawley, urine, rat, intravenous 10 mg/kg, mean ± SEM, read-out: t 1/2 urine (converted)) of the same molecule?
Answer: 9.54 ± 1.51 h

Question: And the half-life ([1]; male, Sprague-Dawley, urine, rat, oral 100 mg/kg, mean ± SEM, read-out: t 1/2 urine (converted))?
Answer: 20.6 ± 3.01 h

Question: And the Tmax ([1]; male, Sprague-Dawley, rat serum, PO 100 mg/kg, average)?
Answer: 0.5 h

Question: What about the AUC(0-inf) ([1]; male, Sprague-Dawley, rat serum, intravenous 10 mg/kg, mean ± SEM) of the same molecule?
Answer: 48.1 ± 23.8 µg·h/mL

Question: What about the AUC(0-inf) ([1]; male, Sprague-Dawley, rat serum, oral 100 mg/kg, mean ± SEM) of the same molecule?
Answer: 229 ± 44.6 µg·h/mL

Question: And the “Cumulative amount excreted in urine” value ([1]; rat, IV 10 mg/kg (~2 mg per rat))?
Answer: ~ 98 μg

Question: And the “Cumulative amount excreted in urine” value ([1]; rat, PO 100 mg/kg (20 mg per rat))?
Answer: 341 µg

Question: And the “f e (fraction excreted in urine unchanged)” value [1, 6]?
Answer: 1.64 ± 0.950%

Question: What about the Vdβ ([1]; rat, intravenous 10 mg/kg, mean ± SEM, 10 mg/kg) of the same molecule?
Answer: 5.11 ± 0.38 L/kg and 5.11 ± 0.380 L/kg

Question: What about the CLhepatic [1, 6] of the same molecule?
Answer: 785 ± 388 mL/min/kg

Question: And the CLtotal [1, 7]?
Answer: 8 ± 1.33 mL/min/kg

Question: What about the “f e (fraction excreted in urine unchanged)” value [1, 7] of the same molecule?
Answer: 1.24 ± 0.160%

Question: What about the Vdβ [1, 8] of the same molecule?
Answer: 52.0 ± 10.0 L/kg and 52.0 ± 10.5 L/kg

Question: What about the CLhepatic [1, 8] of the same molecule?
Answer: 8 ± 151.33 mL/min/kg and 8 ± 1.33 mL/min/kg

Question: And the “α-Glucosidase inhibition (in words)” value [2]?
Answer: does not appear to exhibit greater inhibition at higher concentrations

Question: What about the “Antioxidant activity (in words)” value ([3]; 1-100 μg/mL) of the same molecule?
Answer: modest concentration-dependent antioxidant activity

Question: And the “Antioxidant capacity (Trolox equivalents)” value ([3]; at 1 μg/mL in DMSO)?
Answer: 98.6 ± 13.7 μg/mL and 0.394 ± 0.0546 mM

Question: What about the “Antioxidant capacity (Trolox equivalents)” value ([3]; at 100 μg/mL in DMSO) of the same molecule?
Answer: 174 ± 2.70 μg/mL and 0.695 ± 0.0094 mM

Question: And the Apoptotic-inducing activity [4]?
Answer: greater apoptotic-inducing activity than resveratrol

Question: What about the Modeled antioxidant potency [5] of the same molecule?
Answer: greater potency than resveratrol

Question: What about the “Activity in crown-gall plant antitumor (potato disk) assay compared with piceatannol” value (crown-gall) of the same molecule?
Answer: significantly greater activity

— publication PMC3652196, “Pharmacometrics of 3-Methoxypterostilbene: A Component of Traditional Chinese Medicinal Plants” (Evidence-based Complementary and Alternative Medicine : eCAM, 2013)
